{"source": "patent EP0722725A1", "about": "“VASCULAR SMOOTH MUSCLE CELL MIGRATION INHIBITOR” (TEIJIN LIMITED, priority 1994, dated 1996)", "key": {"Acute toxicity": {"assay": "Acute toxicity", "type": "in vivo", "details": "no method, species or dose given"}, "[1]": {"test_system": "vascular smooth muscle cell derived from a human normal aorta", "assay": "Measurement of the inhibition activity on cell migration (PDGF-mediated, Transwell Chamber)", "type": "cell-based", "details": "concentration of 10^-7M; migration mediated by human PDGF 10 ng/ml, 6 hours; compared with the cell migration counts where no test compound was added; read-out: inhibition activities on cell migration", "procedure": "A Transwell Chamber (Costar Co., registered trademark) was used to measure the inhibitory activity. The chamber is divided into a lower and a upper chamber with an 8-µm pore size membrane filter (PVP-free polycarbonate filter, Nucleopore Co., registered trademark), and the filter was pretreated on its lower surface with 5 µg of rat tail collagen type 1 (Becton Dickinson Co.). To the upper chamber was added 100 µl of a 1.5 x 10^6/ml suspension of cells in a mixed solution of DMEM (supplied by Flow Laboratories Co.) and 0.1% BSA (supplied by Nakarai Tesque Co.), and a solution of human PDGF (supplied by Becton Dickinson Co.), which is prepared by diluting with the same mixed solution to giving the final concentration of 10 ng/ml, is filled in the lower chamber (600 µl). […] After the chamber was allowed to stand under 5%-CO2 atmosphere at 37°C For 6 hours, the filter was taken out. […] After cells adhered on the upper surface of the filter were removed with a cotton swab, the cells migrated to the lower surface were counted under a high-magnifying-power microscope (x200, x400) in terms of cell nuclei. Usually, five fields were counted per filter. Cell migration was expressed by the average cell count of the five fields ± the standard deviation. The significant difference was examined by Student's two-tailed t-test."}}}
{"smiles": "CCCC[C@H](C)C[C@H](O)/C=C/[C@@H]1[C@H]2CC(CCc3ccc(C(=O)OC)cc3)=C[C@H]2C[C@H]1O", "note": "[compound 5e]", "values": [{"measurement": "acute toxicity", "setting": "Acute toxicity", "result": "neither of the compounds 5e and 6b had problem with acute toxicity"}, {"measurement": "inhibition at 0.1 µM", "setting": "[1]", "result": 13.9, "unit": "%"}]}
